Test results published in patent publication US9221746B2, “Homo- and hetero-polyamino-acid derivatives of fullerene C60, method for producing same, and pharmaceutical compositions based on said derivatives” (priority 2011, dated 2015).
Marks after values point to notes of the source that are not given here.

Experiments:
Lewis carcinoma (3LL) = test: Transplantable Lewis carcinoma (3LL) in mice; format: in vivo
Procedure: These studies were carried out at the Institute for Toxicology, St. Petersburg, 2006, according to “Guidelines for the Study of Antitumor Activity of Pharmacological Agents” (“Manual on Experimental (Preclinical) Study of New Pharmacological Agents,” Ministry of Public Health of the Russian Federation, Remedium, Moscow, 2000, pp. 319-325).
The L1210 leukemia, breast adenocarcinoma Ca-755, and Lewis carcinoma (3LL) tumor cell strain were purchased from the Petrov Research Institute for Oncology, the Ministry of Public Health of the Russian Federation (St. Petersburg).
C 57 BL/6J line male mice with transplanted 3LL cells. Mouse ages: 6 to 8 weeks; body weights: 18 to 24 g.
The antitumor effect was ascertained through the following parameters: • ascite accumulation as animal body weight gain; • the lifetime of animals; and • tumor growth. The larger dimension of the tumor (length) and the smaller dimension normal thereto (width) were measured. The tumor volume was calculated, and the inhibition of tumor growth was calculated by a formula. The ascertainment criterion was the day when each individual tumor reached a volume of 500 mm^3.

[1] = tested on: A/Aichi/2/69 (H3N2) influenza virus; test: Induced influenza pneumonia in mice
[2] = LD70, intramuscularly 50 mg/kg/day
[3] = LD70, intramuscularly 100 mg/kg/day
[4] = LD70, intramuscularly 200 mg/kg/day
[5] = LD70, intraperitoneally 50 mg/kg/day
[6] = LD70, intraperitoneally 100 mg/kg/day

Fullerene Poly(Aminocaproic Acid) of Formula C60(H3){NH(CH2)5COO—}3{NH3^+(CH2)5COOH}3 [Agent No. 1]
Day when the tumor reaches a volume of 500 mm³ (Lewis carcinoma (3LL); 100 mg/kg): 21.3 ± 1.21 days | Lifetime, M ± m (Lewis carcinoma (3LL); 100 mg/kg): 55.92 ± 0.98 days | day post transplantation when the first tumors were observed (Lewis carcinoma (3LL); 100 mg/kg): 7 days | Number of large (>3 mm) metastases in lungs, M ± m (Lewis carcinoma (3LL); 100 mg/kg (n = 12)): 5.8 ± 1.91 | Number of metastases in lungs, M ± m (Lewis carcinoma (3LL); 100 mg/kg (n = 12)): 53.5 ± 11.23 | Weight of lungs, mg M + m (Lewis carcinoma (3LL); 100 mg/kg (n = 12)): 491.9 ± 63.72 mg | percent inhibition (average tumor volume) compared to the control group (Lewis carcinoma (3LL); 100 mg/kg, day 10): 71.77% | percent inhibition (average tumor volume) compared to the control group (Lewis carcinoma (3LL); 100 mg/kg, day 17): 58.5% | Day when the tumor reaches a volume of 500 mm³ (Lewis carcinoma (3LL); 100 mg/kg, versus control): 27.3%* | Lifetime, Percent increase (Lewis carcinoma (3LL); 100 mg/kg, versus control): 70.42%* | Day when the tumor reaches a volume of 500 mm³ (Lewis carcinoma (3LL); 250 mg/kg): 20.5 ± 1.20 days | Lifetime, M ± m (Lewis carcinoma (3LL); 250 mg/kg): 56.38 ± 0.68 days | day post transplantation when the first tumors appeared (Lewis carcinoma (3LL); 250 mg/kg): 8 days | Number of large (>3 mm) metastases in lungs, M ± m (Lewis carcinoma (3LL); 250 mg/kg (n = 13)): 5.7 ± 1.54 | Number of metastases in lungs, M ± m (Lewis carcinoma (3LL); 250 mg/kg (n = 13)): 55.8 ± 11.60 | Weight of lungs, mg M + m (Lewis carcinoma (3LL); 250 mg/kg (n = 13)): 505.4 ± 68.82 mg | percent inhibition (average tumor volume) compared to the control group (Lewis carcinoma (3LL); 250 mg/kg, day 10): 84.37% | percent inhibition (average tumor volume) compared to the control group (Lewis carcinoma (3LL); 250 mg/kg, day 17): 54.2% | Day when the tumor reaches a volume of 500 mm³ (Lewis carcinoma (3LL); 250 mg/kg, versus control): 22.9%* | Lifetime, Percent increase (Lewis carcinoma (3LL); 250 mg/kg, versus control): 71.85%* | increase of the average lifetime against the control group (Lewis carcinoma (3LL); both doses): approximately 70% | Average lifetime (days) [1, 2]: 13.3 (1-7 d., 1-8 d.) days | Percent death protection (%) [1, 2]: 50% | Percent body weight change in days post infection ([1]; LD70, intramuscularly 50 mg/kg/day, day 1): +20% | Percent body weight change in days post infection ([1]; LD70, intramuscularly 50 mg/kg/day, day 2): +22% | Percent body weight change in days post infection ([1]; LD70, intramuscularly 50 mg/kg/day, day 3): +22% | Percent body weight change in days post infection ([1]; LD70, intramuscularly 50 mg/kg/day, day 4): +17% | Percent body weight change in days post infection ([1]; LD70, intramuscularly 50 mg/kg/day, day 5): +11% | Percent body weight change in days post infection ([1]; LD70, intramuscularly 50 mg/kg/day, day 7): +9% | Percent body weight change in days post infection ([1]; LD70, intramuscularly 50 mg/kg/day, day 9): +11% | Percent body weight change in days post infection ([1]; LD70, intramuscularly 50 mg/kg/day, day 11): +19% | Percent body weight change in days post infection ([1]; LD70, intramuscularly 50 mg/kg/day, day 13): +26% | Percent death protection (%) [1, 3]: 70% | average lifetime [1, 3]: >16 days | Percent body weight change in days post infection ([1]; LD70, intramuscularly 100 mg/kg/day, day 1): +21% | Percent body weight change in days post infection ([1]; LD70, intramuscularly 100 mg/kg/day, day 2): +25% | Percent body weight change in days post infection ([1]; LD70, intramuscularly 100 mg/kg/day, day 3): +27% | Percent body weight change in days post infection ([1]; LD70, intramuscularly 100 mg/kg/day, day 4): +23% | Percent body weight change in days post infection ([1]; LD70, intramuscularly 100 mg/kg/day, day 5): +20% | Percent body weight change in days post infection ([1]; LD70, intramuscularly 100 mg/kg/day, day 7): +21.5% | Percent body weight change in days post infection ([1]; LD70, intramuscularly 100 mg/kg/day, day 9): +32% | Percent body weight change in days post infection ([1]; LD70, intramuscularly 100 mg/kg/day, day 11): +35.5% | Percent body weight change in days post infection ([1]; LD70, intramuscularly 100 mg/kg/day, day 13): +38% | Average lifetime (days) [1, 4]: 13.8 (1-7 d., 1-13 d.) days | Percent death protection (%) [1, 4]: 50% | Percent body weight change in days post infection ([1]; LD70, intramuscularly 200 mg/kg/day, day 1): +25% | Percent body weight change in days post infection ([1]; LD70, intramuscularly 200 mg/kg/day, day 2): +27% | Percent body weight change in days post infection ([1]; LD70, intramuscularly 200 mg/kg/day, day 3): +28% | Percent body weight change in days post infection ([1]; LD70, intramuscularly 200 mg/kg/day, day 4): +24% | Percent body weight change in days post infection ([1]; LD70, intramuscularly 200 mg/kg/day, day 5): +20% | Percent body weight change in days post infection ([1]; LD70, intramuscularly 200 mg/kg/day, day 7): +23% | Percent body weight change in days post infection ([1]; LD70, intramuscularly 200 mg/kg/day, day 9): +22% | Percent body weight change in days post infection ([1]; LD70, intramuscularly 200 mg/kg/day, day 11): +25% | Percent body weight change in days post infection ([1]; LD70, intramuscularly 200 mg/kg/day, day 13): +36.5% | Average lifetime (days) [1, 5]: 13.4 (2-8 d.) days | Percent death protection (%) [1, 5]: 50% | Percent body weight change in days post infection ([1]; LD70, intraperitoneally 50 mg/kg/day, day 1): +21% | Percent body weight change in days post infection ([1]; LD70, intraperitoneally 50 mg/kg/day, day 2): +27% | Percent body weight change in days post infection ([1]; LD70, intraperitoneally 50 mg/kg/day, day 3): +29% | Percent body weight change in days post infection ([1]; LD70, intraperitoneally 50 mg/kg/day, day 4): +21% | Percent body weight change in days post infection ([1]; LD70, intraperitoneally 50 mg/kg/day, day 5): +16% | Percent body weight change in days post infection ([1]; LD70, intraperitoneally 50 mg/kg/day, day 7): +15% | Percent body weight change in days post infection ([1]; LD70, intraperitoneally 50 mg/kg/day, day 9): +31% | Percent body weight change in days post infection ([1]; LD70, intraperitoneally 50 mg/kg/day, day 11): +36% | Percent body weight change in days post infection ([1]; LD70, intraperitoneally 50 mg/kg/day, day 13): +40% | Average lifetime (days) [1, 6]: 13.7 (1-3 d.) days | Percent death protection (%) [1, 6]: 60% | Percent body weight change in days post infection ([1]; LD70, intraperitoneally 100 mg/kg/day, day 1): +19% | Percent body weight change in days post infection ([1]; LD70, intraperitoneally 100 mg/kg/day, day 2): +23% | Percent body weight change in days post infection ([1]; LD70, intraperitoneally 100 mg/kg/day, day 3): +22% | Percent body weight change in days post infection ([1]; LD70, intraperitoneally 100 mg/kg/day, day 4): +18% | Percent body weight change in days post infection ([1]; LD70, intraperitoneally 100 mg/kg/day, day 5): +15% | Percent body weight change in days post infection ([1]; LD70, intraperitoneally 100 mg/kg/day, day 7): +18%
